Source: patent publication US20230127944A1, “BROAD-SPECTRUM CARBAPENEMS” (priority 2019, published 2023)
Values after ≈ are worked out from the molar mass of the structure shown.

What was measured:
Type in all cases: cell-based
[1] = tested on: P. aeruginosa ΔmexAB-OprM (an efflux pump knockout); assay: broth microdilution MIC assay, P. aeruginosa ΔmexAB-OprM; settings: Pseudomonas aeruginosa, read-out: MIC, P. aeruginosa ΔmexAB-OprM
How it was run: (§1)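 CLSI broth microdilution in cation-adjusted Mueller-Hinton broth: colonies from Mueller Hinton II agar grown 3-5 h at 37° C, inoculum set by OD600 to 5×10^5 CFU/mL final. Compounds in 2-fold serial dilutions; plates incubated 16-20 hours at 37° C. MIC read visually as lowest concentration without growth.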

S. aureus USA 300 = assay: broth microdilution MIC assay, S. aureus USA300; settings: Staphylococcus aureus; S. aureus USA300 (MRSA); read-out: MIC, S. aureus USA300
How it was run: as §1

[2] = tested on: S. aureus ATCC 33591 (methicillin-resistant); assay: broth microdilution MIC assay, S. aureus 33591; settings: Staphylococcus aureus, ATCC33591; S. aureus 33591, methicillin-resistant; read-out: MIC, S. aureus 33591
How it was run: as §1

[3] = tested on: P. aeruginosa 35151 (hyper-permeable strain); assay: broth microdilution MIC assay, P. aeruginosa 35151; settings: Pseudomonas aeruginosa, read-out: MIC, P. aeruginosa 35151
How it was run: as §1

[4] = tested on: P. aeruginosa ATCC 27853 (wild-type/QC strain); assay: broth microdilution MIC assay, P. aeruginosa 27853; settings: Pseudomonas aeruginosa, ATCC27853; read-out: MIC, P. aeruginosa 27853
How it was run: as §1

P. aeruginosa Paeβ-17 = assay: broth microdilution MIC assay, P. aeruginosa Paeβ-17; settings: Pseudomonas aeruginosa, read-out: MIC, P. aeruginosa Paeβ-17
How it was run: as §1

[5] = tested on: E. coli ATCC 25922 (wild-type/QC strain); assay: broth microdilution MIC assay, E. coli 25922; settings: Escherichia coli, ATCC25922; read-out: MIC, E. coli 25922
How it was run: as §1

S. aureus USA 600 = assay: broth microdilution MIC assay, S. aureus USA600; settings: Staphylococcus aureus; S. aureus USA600 (MRSA); read-out: MIC, S. aureus USA600
How it was run: as §1

| SMILES | MIC [1] | MIC (S. aureus USA 300) | MIC [2] | MIC [3] | MIC [4] | MIC (P. aeruginosa Paeβ-17) | MIC [5] | MIC (S. aureus USA 600) |
| --- | --- | --- | --- | --- | --- | --- | --- | --- |
| C[C@@H](O)[C@H]1C(=O)N2C(C(=O)O)=C(S[C@@H]3CCN(C[C@H]4CC[C@@H](CN)CC4)C3)[C@H](C)[C@H]12 [Example 45, (4R,5S,6S)-3-(((R)-1-(((1S,4S)-4-(aminomethyl)cyclohexyl)methyl)pyrrolidin-3-yl)thio)-6-((R)-1-hydroxyethyl)-4-methyl-7-oxo-1-azabicyclo[3.2.0]hept-2-ene-2-carboxylic acid] | 1 to 4 µg/mL (≈ 2.29 to 9.14 µM) | 1 to 4 µg/mL (≈ 2.29 to 9.14 µM) | 1 to 4 µg/mL (≈ 2.29 to 9.14 µM) | < 1 µg/mL | 1 to 4 µg/mL (≈ 2.29 to 9.14 µM) | 8 to 32 µg/mL (≈ 18.3 to 73.1 µM) | < 1 µg/mL | 1 to 4 µg/mL (≈ 2.29 to 9.14 µM) |
| C[C@@H](O)[C@H]1C(=O)N2C(C(=O)O)=C(SC3CN(C[C@H]4CCN(C(=N)N)C4)C3)[C@H](C)[C@H]12 [Example 46, (4R,5S,6S)-3-((1-(((R)-1-carbamimidoylpyrrolidin-3-yl)methyl)azetidin-3-yl)thio)-6-((R)-1-hydroxyethyl)-4-methyl-7-oxo-1-azabicyclo[3.2.0]hept-2-ene-2-carboxylic acid] | 1 to 4 µg/mL (≈ 2.36 to 9.44 µM) | 1 to 4 µg/mL (≈ 2.36 to 9.44 µM) | 1 to 4 µg/mL (≈ 2.36 to 9.44 µM) | < 1 µg/mL | 1 to 4 µg/mL (≈ 2.36 to 9.44 µM) | 8 to 32 µg/mL (≈ 18.9 to 75.6 µM) | < 1 µg/mL | 1 to 4 µg/mL (≈ 2.36 to 9.44 µM) |
| CNC[C@H]1CC[C@H](CN2CC(SC3=C(C(=O)O)N4C(=O)[C@H]([C@@H](C)O)[C@H]4[C@H]3C)C2)CC1 [Example 47, (4R,5S,6S)-6-((R)-1-hydroxyethyl)-4-methyl-3-((1-(((1r,4R)-4-((methylamino)methyl)cyclohexyl)methyl)azetidin-3-yl)thio)-7-oxo-1-azabicyclo[3.2.0]hept-2-ene-2-carboxylic acid] | 1 to 4 µg/mL (≈ 2.29 to 9.14 µM) | 1 to 4 µg/mL (≈ 2.29 to 9.14 µM) | 1 to 4 µg/mL (≈ 2.29 to 9.14 µM) | < 1 µg/mL | 1 to 4 µg/mL (≈ 2.29 to 9.14 µM) | 8 to 32 µg/mL (≈ 18.3 to 73.1 µM) | < 1 µg/mL | 1 to 4 µg/mL (≈ 2.29 to 9.14 µM) |
| C[C@@H](O)[C@H]1C(=O)N2C(C(=O)O)=C(S[C@H]3C[C@H](NC4CCN(C(=N)N)CC4)C3)[C@H](C)[C@H]12 [Example 48, (4R,5S,6S)-3-(((1R,3R)-3-((1-carbamimidoylpiperidin-4-yl)amino)cyclobutyl)thio)-6-((R)-1-hydroxyethyl)-4-methyl-7-oxo-1-azabicyclo[3.2.0]hept-2-ene-2-carboxylic acid] | 1 to 4 µg/mL (≈ 2.29 to 9.14 µM) | 1 to 4 µg/mL (≈ 2.29 to 9.14 µM) | 8 to 32 µg/mL (≈ 18.3 to 73.1 µM) | < 1 µg/mL | 8 to 32 µg/mL (≈ 18.3 to 73.1 µM) | 8 to 32 µg/mL (≈ 18.3 to 73.1 µM) | < 1 µg/mL | 1 to 4 µg/mL (≈ 2.29 to 9.14 µM) |
| C[C@@H](O)[C@H]1C(=O)N2C(C(=O)O)=C(S[C@@H]3CC[C@H](NC4CCN(C(=N)N)CC4)C3)[C@H](C)[C@H]12 [Example 49, (4R,5S,6S)-3-(((1R,3S)-3-((1-carbamimidoylpiperidin-4-yl)amino)cyclopentyl)thio)-6-((R)-1-hydroxyethyl)-4-methyl-7-oxo-1-azabicyclo[3.2.0]hept-2-ene-2-carboxylic acid] | 1 to 4 µg/mL (≈ 2.21 to 8.86 µM) | 1 to 4 µg/mL (≈ 2.21 to 8.86 µM) | 1 to 4 µg/mL (≈ 2.21 to 8.86 µM) | < 1 µg/mL | 1 to 4 µg/mL (≈ 2.21 to 8.86 µM) | 8 to 32 µg/mL (≈ 17.7 to 70.9 µM) | < 1 µg/mL | 1 to 4 µg/mL (≈ 2.21 to 8.86 µM) |
| C[C@@H](O)[C@H]1C(=O)N2C(C(=O)O)=C(S[C@@H]3CC[C@H](NC4CCNCC4)C3)[C@H](C)[C@H]12 [Example 50, (4R,5S,6S)-6-((R)-1-hydroxyethyl)-4-methyl-7-oxo-3-(((1R,3S)-3-(piperidin-4-ylamino)cyclopentyl)thio)-1-azabicyclo[3.2.0]hept-2-ene-2-carboxylic acid] | 1 to 4 µg/mL (≈ 2.44 to 9.77 µM) | 1 to 4 µg/mL (≈ 2.44 to 9.77 µM) | 1 to 4 µg/mL (≈ 2.44 to 9.77 µM) | < 1 µg/mL | 8 to 32 µg/mL (≈ 19.5 to 78.1 µM) | 8 to 32 µg/mL (≈ 19.5 to 78.1 µM) | < 1 µg/mL | 1 to 4 µg/mL (≈ 2.44 to 9.77 µM) |
| C[C@@H](O)[C@H]1C(=O)N2C(C(=O)O)=C(S[C@H]3C[C@@H](N[C@H]4CC[C@@H](NC(=N)N)CC4)C3)[C@H](C)[C@H]12 [Example 51, (4R,5S,6S)-3-(((1S,3S)-3-(((1S,4R)-4-guanidinocyclohexyl)amino)cyclobutyl)thio)-6-((R)-1-hydroxyethyl)-4-methyl-7-oxo-1-azabicyclo[3.2.0]hept-2-ene-2-carboxylic acid] | 1 to 4 µg/mL (≈ 2.21 to 8.86 µM) | < 1 µg/mL | 1 to 4 µg/mL (≈ 2.21 to 8.86 µM) | < 1 µg/mL | 1 to 4 µg/mL (≈ 2.21 to 8.86 µM) | 8 to 32 µg/mL (≈ 17.7 to 70.9 µM) | < 1 µg/mL | 1 to 4 µg/mL (≈ 2.21 to 8.86 µM) |
